This note sets out measurements from US20220257552A1, “METHODS OF PRESCREENING AND TREATING BREAST CANCERS WITH SELECTIVE ANDROGEN RECEPTOR MODULATORS” (priority 2021, published 2022).

In general, IC50 refers to the concentration that gives 50% inhibition. Low values mean higher potency, high ones lower potency.

SMILES strings stand for the structures.

In one series the test system is MDA-MB-231-AR cells. Description: Morphology of MDA-MB-231-AR cells. To be noted: 3 days. It is filed as cell-based. How it is done: MDA-MB-231 cells were stably transfected with AR using lentivirus. […] Live cells were visualized using a light-microscope and photographed. The cells were imaged at the same magnification and under the same microscopic conditions.
MDA-MB-231 cells were stably transfected with AR using lentivirus and were treated with vehicle or AR agonists at the indicated concentrations. At the end of 3 days of incubation, the cells were imaged under a microscope (40×).

Series [1] concerns MDA-MB-231-AR triple negative breast cancer cells. Description: MDA-MB-231-AR xenograft in nude mice. Format: in vivo. The note with it: for body weight / tumor weights: all doses. The protocol:
MDA-MB-231-AR triple negative breast cancer cells (2 million cells/mouse; MDA-MB-231 cells stably transfected with AR using lentivirus) were mixed with matrigel (1:1) and injected subcutaneously into the flanks of intact female nude mice (n=5/group). When the tumors reached 150-200 mm^3, the animals were separated into two groups, one receiving vehicle and the other receiving 30 mg/kg Formula VIII orally. Tumor volume was measured thrice weekly and % tumor growth inhibition (TGI) was calculated. At the end of 35 days of treatment, the animals were sacrificed, tumors excised, weighed, and collected for various analyses. Blood was collected and serum separated for drug concentration measurement.

A further series has as its target T1, AR (Homo sapiens, UniProt P10275).
T1 sequence (P10275 1-920): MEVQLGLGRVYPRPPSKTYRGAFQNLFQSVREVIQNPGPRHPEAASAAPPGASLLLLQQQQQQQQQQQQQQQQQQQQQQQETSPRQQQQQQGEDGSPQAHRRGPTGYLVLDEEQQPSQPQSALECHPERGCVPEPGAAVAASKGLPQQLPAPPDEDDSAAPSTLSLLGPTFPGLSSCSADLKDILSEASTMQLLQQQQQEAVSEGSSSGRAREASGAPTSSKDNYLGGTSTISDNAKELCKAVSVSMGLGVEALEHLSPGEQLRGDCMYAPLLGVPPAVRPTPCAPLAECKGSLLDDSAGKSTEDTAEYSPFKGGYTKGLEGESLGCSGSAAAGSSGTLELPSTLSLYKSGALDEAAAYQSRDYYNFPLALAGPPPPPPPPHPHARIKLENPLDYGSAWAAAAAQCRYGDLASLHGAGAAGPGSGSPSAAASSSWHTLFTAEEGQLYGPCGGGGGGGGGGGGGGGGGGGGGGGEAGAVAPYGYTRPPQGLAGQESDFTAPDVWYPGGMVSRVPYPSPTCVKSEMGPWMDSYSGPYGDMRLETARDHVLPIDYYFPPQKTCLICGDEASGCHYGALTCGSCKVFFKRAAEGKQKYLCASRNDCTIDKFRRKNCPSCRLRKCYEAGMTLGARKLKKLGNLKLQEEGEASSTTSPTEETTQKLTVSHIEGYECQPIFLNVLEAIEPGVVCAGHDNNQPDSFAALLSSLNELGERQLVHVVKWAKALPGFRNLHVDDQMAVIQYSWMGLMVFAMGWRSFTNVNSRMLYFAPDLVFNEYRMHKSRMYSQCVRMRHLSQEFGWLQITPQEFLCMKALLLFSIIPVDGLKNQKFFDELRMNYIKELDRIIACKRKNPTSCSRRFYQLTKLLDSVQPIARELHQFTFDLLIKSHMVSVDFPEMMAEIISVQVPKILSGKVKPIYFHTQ
The series can be described thus: AR transactivation (GRE-LUC) in HEK-293 or MDA-MB-231 cells. It is filed as cell-based. More on the design: expressed in transfected cells. To be noted: HEK-293 and MDA-MB-231 cells. The protocol:
Though AR transactivation assay was performed in HEK-293 cells, the ability of ligands to function as agonists or antagonists depends on cellular microenvironment. […] The cells were treated 24 h after transfection and luciferase assay performed 48 h after transfection.

For another series, the target named is T2, PR (Rattus norvegicus, UniProt Q63449).
T2 construct: expressed in transfected cells
T2 sequence (Q63449 1-923): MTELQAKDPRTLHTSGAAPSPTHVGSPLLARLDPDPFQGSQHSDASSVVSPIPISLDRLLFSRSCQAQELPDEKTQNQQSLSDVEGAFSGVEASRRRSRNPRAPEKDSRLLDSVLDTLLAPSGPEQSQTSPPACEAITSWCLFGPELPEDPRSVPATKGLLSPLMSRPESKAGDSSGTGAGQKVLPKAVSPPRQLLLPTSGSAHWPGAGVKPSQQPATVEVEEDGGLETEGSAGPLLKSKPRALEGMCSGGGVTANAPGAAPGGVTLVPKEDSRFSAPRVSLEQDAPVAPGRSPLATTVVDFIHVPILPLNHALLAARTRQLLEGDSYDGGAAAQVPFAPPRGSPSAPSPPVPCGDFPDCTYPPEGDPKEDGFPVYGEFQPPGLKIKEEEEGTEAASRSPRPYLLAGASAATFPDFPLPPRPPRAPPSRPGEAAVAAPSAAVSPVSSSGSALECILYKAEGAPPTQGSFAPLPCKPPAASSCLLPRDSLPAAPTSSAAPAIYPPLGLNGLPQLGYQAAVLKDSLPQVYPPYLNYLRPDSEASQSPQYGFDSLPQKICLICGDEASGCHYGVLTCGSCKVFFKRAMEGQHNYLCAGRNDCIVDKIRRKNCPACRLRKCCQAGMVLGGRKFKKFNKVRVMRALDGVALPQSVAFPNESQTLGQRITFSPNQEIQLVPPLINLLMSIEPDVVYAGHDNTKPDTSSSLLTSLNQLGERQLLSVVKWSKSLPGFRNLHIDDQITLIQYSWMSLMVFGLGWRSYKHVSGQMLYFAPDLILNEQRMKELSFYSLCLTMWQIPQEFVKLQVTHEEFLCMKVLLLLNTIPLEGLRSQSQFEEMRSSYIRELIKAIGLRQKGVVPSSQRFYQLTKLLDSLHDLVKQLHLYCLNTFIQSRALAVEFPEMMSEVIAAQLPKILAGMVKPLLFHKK
The series can be described thus: PR transactivation in HEK-293 cells. Format: cell-based. The protocol:
Rat GR, MR, PR, ER-α and ER-β were individually cloned into a pCR3.1 vector backbone. Sequencing was performed to verify the absence of any mutations. HEK-293 cells were plated at 90,000 cells per well of a 24 well plate in Dulbecco's Minimal Essential Media supplemented with 5% charcoal-stripped FBS. […] Luciferase assays were performed 48 h after transfection. Transcriptional activation values are represented as firefly luciferase normalized to renilla luciferase.

Series [2] deals with MDA-MB-231 breast cancer cells stably transfected with AR. Description: Proliferation of MDA-MB-231 cells stably transfected with AR (Coulter counter). Format: cell-based. The note with it: 6 days, cell count. How it is done:
MDA-MB-231 cells stably transfected with AR using lentivirus were treated with the indicated ligands for 6 days and the number of cells counted using Coulter counter.

In the case of `C[C@](O)(COc1ccc(C#N)cc1)C(=O)Nc1ccc(C#N)c(C(F)(F)F)c1` [Formula IX, (S)—N-(4-Cyano-3-(trifluoromethyl)phenyl)-3-(4-cyanophenoxy)-2-hydroxy-2-methylpropanamide], in the series with MDA-MB-231-AR cells, the cell morphology result was “altered the morphology into a more anchored phenotype”. Besides, in series [1], the body weight result is “increase of body weight” and the tumor weights entry is “reduced”. For the same compound, the AR transactivation entry at AR is “agonists of AR”. Besides, the 50% inhibitory concentration (IC50) at PR turned out to be 163 nM. Moreover, in series [2], the proliferation entry was “inhibited the proliferation”.

`C[C@](O)(COc1ccc(C#N)cc1)C(=O)Nc1ccc(C#N)c(Cl)c1` [Formula VIII, (S)—N-(3-chloro-4-cyanophenyl)-3-(4-cyanophenoxy)-2-hydroxy-2-methylpropanamide]: the cell morphology entry in the series on MDA-MB-231-AR cells is recorded as “altered the morphology into a more anchored phenotype”. For the same compound, the uterus weight entry in series [1] (30 mg/kg orally) is on record as “increased”. Further, in series [1] (30 mg/kg orally, 35 days), the “toxicity / body weight” value was “without any associated toxicity or changes in body weight”. Besides, in series [1], the body weight entry is “increase of body weight” and the tumor weights entry was “reduced”. In addition, the AR transactivation entry on AR is “agonists of AR”. In addition, at PR, the IC50 worked out at 17.1 nM, the “PR antagonist potency relative to Formula IX (more potent)” value is recorded as 10 times, the “PR antagonist potency relative to R-enantiomer of Formula IX (more potent)” value is listed as 100 times and the “PR antagonist potency relative to RU486 (weaker)” value is reported as “about 1,000 fold”. Moreover, the “transactivation of PR, increase” value at PR (1 μM) turned out to be 3 fold. For the same compound, at PR (10 μM), the “transactivation of PR, increase” value stood at 8 fold. The “weaker than the endogenous agonist for PR” value at PR (vs progesterone) is “greater than 10,000 fold”. Further, the proliferation result in series [2] is on record as “inhibited the proliferation”.
